From paper PMC9295577, “Parasite Viability as a Measure of In Vivo Drug Activity in Preclinical and Early Clinical Antimalarial Drug Assessment” (Antimicrobial Agents and Chemotherapy, 2022)
Values after ≈ are worked out from the molar mass of the structure shown. Values joined by “and” are separate entries in the source; they are usually repeats but may differ in a detail not shown here. Equal values may be shown once. Read-outs that look alike come from different tables or passages of the source.

Assays:
[1] = DHA pharmacokinetics in NSG mice after oral artesunate, one-compartment model; format: in vivo; conditions: mouse, whole blood
Description: A volume of 25 μL of whole-blood samples was collected via the tail vein from individual mice at 0.75, 1.5, 3, 8, 26, 50, and 74 h from the 50-mg/kg 4-daily-dose group and at 0.75, 1.5, 3, and 8 h from the 200-mg/kg single-dose group. […] Samples were vortexed for 20 s before being stored at −80°C.
Briefly, the model is defined as follows: (2) C(t)=D×ka/Vd/F(ka−CL/Vd) ×[exp⁡(−CL/Vd×(t−tlag))− exp⁡(−ka×(t−tlag)) ], where Vd/F (L) is the apparent volume of distribution, tlag (h) is the lag time between administration and absorption, CL/F (L/h) is the apparent drug clearance, ka is the rate of drug absorption, and D is the dose given to each subject. The model was fit with and without a lag for the absorption.
We used a least-square approach when fitting the ex vivo regrowth assay to estimate the concentration of viable parasites. […] When fitting the pharmacodynamic model, we first fit the pretreatment parasite concentration data for each human subject with the parasite growth model (equation 3) and estimated the distribution of parasite stages at the time of treatment and the parasite multiplication factor (PMF) when drug is not present. […]

[2] = DHA pharmacokinetics in human volunteer infection study after artesunate; format: in vivo, humans
Excerpt: (§1) The human data used in this study were obtained from a randomized clinical trial (ACTRN12617001394336) ([24]) and the associated exploratory viability study ([19]). Briefly, 5 volunteers were infected by intravenous injection of blood-stage 3D7 P. falciparum parasites.
Briefly, the model is defined as follows: (2) C(t)=D×ka/Vd/F(ka−CL/Vd) ×[exp(−CL/Vd×(t−tlag))− exp(−ka×(t−tlag)) ], where Vd/F (L) is the apparent volume of distribution, tlag (h) is the lag time between administration and absorption, CL/F (L/h) is the apparent drug clearance, ka is the rate of drug absorption, and D is the dose given to each subject. The model was fit with and without a lag for the absorption. The absorption was too fast to be observed in mice, and the one-compartment open model without a lag term fit the murine data best.
A one-compartment model with a first-order absorption and a lag, fit the human data best.
We used a least-square approach when fitting the ex vivo regrowth assay to estimate the concentration of viable parasites. […] When fitting the pharmacodynamic model, we first fit the pretreatment parasite concentration data for each human subject with the parasite growth model (equation 3) and estimated the distribution of parasite stages at the time of treatment and the parasite multiplication factor (PMF) when drug is not present. For the mice, pretreatment parasitemia curves were not detailed enough to allow fitting to estimate parasite life stage distributions and PM: instead, we estimated the PMF for each mouse from the in vivo recrudescence curves after treatment (fitting a tobit regression model using R package censReg) (Fig. 3), and we estimated the life stage distribution using the life stages from flow cytometric analysis (outlined in section C in the supplemental material). […] We fit this model to all data on parasite viability and total circulating parasitemia from mice and humans simultaneously with a variety of parameters constrained to be equivalent between mice and humans, in order to test which parameters, if any, were required to be different between the two hosts in order to best explain the data. We compared these models using the likelihood ratio test (for nested models) and the Akaike information criterion (AIC). A model with fewer parameters was deemed a better fit of the data unless the likelihood ratio test yielded a P value of […] (for nested models) or the difference in AIC of >10 for nonnested models.

P. falciparum 3D7 [3] = experiment: PK/PD model of parasite killing and clearance, parameters for mice; format: in vivo
Excerpt: (§2) To model the drug action in both mice and humans, we used a pharmacodynamic (PD) model in which viable parasites are growing at rate g (per hour) and killed at rate κ (per hour). The dead parasites are then removed at a separate rate, δ (per hour). […] The latter observation is consistent with observations of slower parasite clearance after drug treatment in the NSG mouse model compared with human infection ([27]).
(§3) To model the cyclical growth of P. falciparum parasites, we used a previously published age-structured model of parasite growth, which tracks the distribution of parasite stages developing in time ([40]): (3) vT(a,T)+va(a,T)=0 where, v is the density of parasites at time T postinfection and age a. In this equation, subscripts indicate the partial derivative of v with respect to the subscript variable. […] The constant PMF is the parasite multiplication factor. Since parasites older than approximately 24 h of age are sequestered and no longer in circulation, the total number of circulating viable parasites (V) at any time is given by V(T)= ∫0asv(a,T)da where as is the age that parasites sequester. Importantly, as has been reported previously, the Plasmodium falciparum 3D7 strain used in these studies has an approximately 40-h blood-stage cycle ([41], [42]), so the maximum age of parasites is taken to be A=40 h.
(§4) We extended an existing age-structured model of parasite growth ([43]) to include drug killing of parasites. […] The model has two parasite compartments: one for viable parasites and one for nonviable parasites. The model of drug killing of viable parasites and host removal of nonviable parasites after treatment is defined as follows: vt(a,t)+va(a,t)= −κ(a,C(t))×v(a,t) (4) ut (a,t)=κ(a,C(t))×v(a,t)−δ×u(a,t) for a>0 where v(a,t) and u(a,t) are the density of viable and nonviable parasites of age a at time t posttreatment, respectively. […] The parameter δ is the rate of host removal of nonviable parasites. The total concentrations of circulating V(t) viable and nonviable U(t) parasites at time t are defined as follows: V(t)= ∫0aSv(a,t)da U(t)= ∫0aSu(a,t)da where as is the parasite sequestration age. We assume that the parasites are not sequestering in mice, in which case, as=A (the length of the parasite blood-stage life cycle), and that parasites sequester at as=A/2 in humans ([46]).
(§5) The maximum killing rate m(a) is a function of the parasite age since very-late-stage parasites are not killed by treatment ([47]).
(§6) As in previous studies, the age above which late-stage parasites survive treatment (aschiz) is taken to be the final 4 h of a 48-h life cycle ([48], [49]). The malaria parasite strain used in this study has a 40-h life cycle ([42], [46]), and we take aschiz as the last 4/48th of the life cycle. […]

P. falciparum 3D7 [4] = experiment: PK/PD model of parasite killing and clearance, parameters for humans; format: in vivo; conditions: human data from ref 19
Excerpt: as §2, §1, §3, §4
The maximum killing rate m(a) is a function of the parasite age since very-late-stage parasites are not killed by treatment ([47]). […]

P. falciparum 3D7 [5] = experiment: PK/PD model of parasite killing, parameters common to humans and mice; format: in vivo, Plasmodium falciparum
Excerpt: as §2, §3, §4, §5, §6

[6] = design: method as in earlier work; conditions: humans, non-compartmental analysis, population mean (CV), ref 4 (supplement; Watts et al. 2020), cited from earlier work
[7] = mouse, literature, cited from earlier work
[8] = tested on: P. falciparum Pf3D7^0087/N9; experiment: Artesunate efficacy in the murine P. falciparum NSG model: parasitemia and parasite viability (ex vivo regrowth assay); design: species or system Plasmodium falciparum; conditions: NSG mice, first 24 h, single oral dose 200 vs 50 mg/kg
Description: Compound efficacy was assessed in the murine P. falciparum NSG model, as described by Jimenez-Diaz et al. ([38]). […] These mice had been engrafted with human erythrocytes 14 days earlier (generously provided by the Blood Bank in Zürich, Switzerland). Prior to compound treatment, mice were intravenously infected with 2 × 10^5 P. falciparum Pf3D7^0087/N9-infected erythrocytes (day 0). On day 3 after infection, mice were randomly allocated to treatments that were administered orally. Parasitemia was measured by microscopy. Chimerism was monitored by flow cytometry using anti-murine erythrocyte TER119 monoclonal antibody (Pharmingen, San Diego, CA) and SYTO-16 and then analyzed by flow cytometry in serial blood samples (2 μL) collected every day until the completion of the experiment. Parasite recrudescence was detected by microscopy.
Prior to each treatment and after 8, 24, 48, 72, 96 and 168 h, 40 μL of blood was collected using a heparinized capillary and transferred into 10 mL of 37°C preheated medium. The suspension was centrifuged (5 min at 290 × g) and the supernatant discarded.
For the ex vivo regrowth assay (ERA), 10-μL pellets of the washed mouse blood sample were processed as described above for the IRA.
To estimate parasite viability, we fitted the data from the regrowth assay with a mathematical model of parasite growth as described in reference [19]. […]

[9] = humans, one compartment model, population estimate (95% CI)
[10] = model with EC50 and γ common to humans and mice
[11] = model with Emax and γ common to humans and mice
[12] = assumes average mouse weight of 25 g

SMILES: C[C@H]1[C@@H](O)O[C@@H]2O[C@@]3(C)CC[C@H]4[C@H](C)CC[C@@H]1[C@@]24OO3 [DHA, dihydroartemisinin]
- half-life ([1]; mice, computed from CL and Vd, read-out: t1/2, half-clearance time (converted)): 24 min
- Vd/F ([1]; read-out: Vd/F, apparent volume of distribution): 0.55 L
- half-life ([2]; human, blood, 2 mg/kg, humans, computed from CL and Vd, read-out: t1/2, half-clearance time (converted)): 27 min
- Vd/F ([2]; human, blood, 2 mg/kg, read-out: Vd/F, apparent volume of distribution): 166 L
- CL/F, apparent clearance ([2]; humans (n = 5), artesunate 2 mg/kg, population estimate (95% CI), one-compartment model fitted to data from reference 24): 254.5 L/h and 254.5 (144.5, 364.5) L/h
- Dose-Normalised AUC ([2]; humans, one compartment model, average of volunteers, bootstrap confidence interval): 5.34 (3.83, 6.52) μg h L^-1 mg^-1
- ka, absorption rate [2, 9]: 2.29 h⁻¹
- tlag, lag-time [2, 9]: 0.62 (0.4, 0.83) h
- EC50 (P. falciparum 3D7 [3]; Plasmodium falciparum, 3D7, model with Emax and γ common to humans and mice, read-out: EC50M, drug concentration to reach the half-maximum killing rate in mice): 1.32 ng/mL (≈ 4.64 nM)
- EmaxM, maximum killing rate in mice (P. falciparum 3D7 [3]; [10]): 0.74 h⁻¹
- EC50 (P. falciparum 3D7 [4]; Plasmodium falciparum, 3D7, model with Emax and γ common to humans and mice, read-out: EC50H, drug concentration to reach the half-maximum killing rate in humans): 0.0025 ng/mL (≈ 0.00879 nM)
- EmaxH, maximum killing rate in humans (P. falciparum 3D7 [4]; [10]): 1.45 h⁻¹
- EC50 (P. falciparum 3D7 [5]; Plasmodium falciparum, 3D7, model with EC50 and γ common to humans and mice, different Emax, read-out: EC50, drug concentration to reach the half-maximum killing rate): 0.0074 ng/mL (≈ 0.026 nM)
- γ, Hill coefficient (P. falciparum 3D7 [5]; [10]): 0.70
- γ, Hill coefficient (P. falciparum 3D7 [5]; [11]): 0.41
- Emax, maximum killing rate (P. falciparum 3D7 [5]; model with Emax and γ common to humans and mice, different EC50s): 1.34 h⁻¹
- V/F, apparent volume of distribution ([6]; ART-R infection (n = 13)): 221.1 (53.6) L
- Dose-Normalised AUC ([6]; ART-R infection): 6.3 (89.9) μg h L^-1 mg^-1
- V/F, apparent volume of distribution ([6]; ART-S infection (n = 9)): 310.3 (119.4) L
- Dose-Normalised AUC ([6]; ART-S infection): 7.5 (33.2) μg h L^-1 mg^-1
- CL/F, apparent clearance [7, 12]: 1.53 L/h
- Vd/F, apparent volume of distribution [7, 12]: 0.91 L
- CL/F, apparent clearance [7]: 1.98 L/h
- Vd/F, apparent volume of distribution [7]: 0.85 L
- t1/2, half-clearance time [7]: 0.41 ([50]) h

SMILES: C[C@H]1[C@H](OC(=O)CCC(=O)O)O[C@@H]2O[C@@]3(C)CC[C@H]4[C@H](C)CC[C@@H]1[C@@]24OO3 [artesunate]
- increase in the decline in total parasitemia on increasing dose from 50 to 200 mg/kg [8]: 2.2 fold
- increase in the decline in viability on increasing dose from 50 to 200 mg/kg ([8]; regrowth assay): 23.9 fold
- δM, dead parasite clearance rate in mice (P. falciparum 3D7 [3]; [10]): 0.097 h⁻¹
- δM, dead parasite clearance rate in mice (P. falciparum 3D7 [3]; [11]): 0.097 h⁻¹
- δH, dead parasite clearance rate in humans (P. falciparum 3D7 [4]; [10]): 0.18 h⁻¹
- δH, dead parasite clearance rate in humans (P. falciparum 3D7 [4]; [11]): 0.18 h⁻¹
